Data set [1] is described as follows: Transient absorption spectroscopy (triplet state). In kind it is physicochemical. The procedure: (§1) Photophysical study. For the absorption and fluorescence spectroscopy, we prepared a stock solution with concentration of 1 mM oligomer and 10% v/v solution of DMSO in H2O. 30 μL of the sonicated suspension of each EO-OPE-1 was diluted into 3 mL solution in a quartz cuvette to give a concentration of 10 μM. Absorption and fluorescence were performed on plate reader (SpectroMax M-5 microplate reader, Molecular Devices) at 24° C. Transient absorption spectra were recorded for EO-OPE-1 samples in both methanol and water. Transient absorption spectra were collected using laser systems that are described elsewhere 1, 2. The optical density was adjusted to 0.7 at the excitation wavelength (355 nm) with the laser energy being 6-7 mJ. Solutions were purged with argon for […] before making transient absorption spectroscopy measurements.
Singlet oxygen generation. Excited triplet state (ETS) plays an essential role in the generation of ROS and 1O2. […] Another important point to note is that all members of EO-OPE-1 series underwent fast photobleaching in water during TA experiments (approximately 40-50% reduction in signal intensity). To minimize the error due to photobleaching, fresh samples were prepared and used in each run. […] On the other hand, the triplet lifetimes for EO-OPE-1(C3, A), EO-OPE-1 (C2, A), EO-OPE-1 (C3, S), and EO-OPE-1 (Th, C3, A) are 5.2 μs, 17.9 μs, 18.7 μs, and 7.2 μs, respectively. Based on the above discussions, we would expect C will give a higher yield of 1O2, with lower yields for EO-OPE-1 (C2, A), EO-OPE-1(C3, A), and EO-OPE-1 (C3, S).

For data set [2], the system named is E.coli, S.epidermis, and S.aureus. Put plainly: Dead/live assays, biocidal activity stated without singling out a bacterium. The class given is cell-based. Conditions: UV irradiation. The procedure:
Dead/live assays were performed to test the biocidal activity of EO-OPE-1(C3, A), EO-OPE-1 (C2, A), EO-OPE-1 (C3, S) and EO-OPE-1 (Th, C3, A) against E.coli, S.epidermis, and S.aureus. E.coli, S.epidermis, and S.aureus were cultured in 50 mL of Difco™ Nutrient broth (LOT 4057492, Becton, Dickinson and Company, Sparks, Md. 21152 USA), Difco™ Nutrient broth (LOT 4057492, Becton, Dickinson and Company, Sparks, Md. 21152 USA), and BBL™ Brain Heart Infusion (LOT 8263271, Becton, Dickinson and Company, Sparks, Md. 21152 USA), respectively, for 18 h at 37° C. under shaking. The bacteria were collected by centrifuging 50 mL of culture at 4,000 rpm in an Eppendorf centrifuge for 15 min at 4° C. The pellet was re-suspended with the assistance of vortex in 25 mL of 0.85% NaCl solution and repelleted. The wash cycle was repeated twice. Bacterial concentrations were measured and normalized using a disposal hemocytometer (INCYTO Co., Ltd), counts being 2.5˜3.0×10^7/mL. The diluted bacteria suspension was added to 1.5 mL of black and transparent microtubes in aliquots of 500 μL for dark and light samples, respectively. Three groups of live controls were prepared with cells suspended in black microtubes, transparent microtubes, and quartz cuvettes at the same concentrations, but without chemicals. These bacteria samples were titrated by OPEs with various concentrations followed by staying in dark for dark samples/controls and exposing to UV irradiation in a photoreactor chamber for light samples/controls with certain duration.
Dead/live assays were carried out using two sets of stains: SYTO 9/Propidium iodide for E.coli and SYTO 24/Propidium iodide for S.epidermis and S.aureus. SYTO 9 and SYTO 24 are cell membrane permeant nucleic acid stains with green (˜498 nm for SYTO 9 and ˜515 nm for SYTO 24) fluorescence and used to stain both live and dead cells; Propidium iodide is a red-fluorescent nucleic acid stain that is membrane impermeable to viable cells but stains DNA or RNA of dead cells with comprised membranes and emits red (˜617 nm) fluorescence, indicating cell death. Upon the completion of the above treatment, a 1 to 1 ratio mixture of the two dyes was prepared and added into the samples (2.4 μL mixed dyes for 500 μL suspension) and incubated for 15 minutes in the dark. Bacteria were then examined under a 40× oil objective on a Zeiss LSM 510 Meta confocal laser scanning microscope and an Accuri C6 flow cytometer to identify and quantify those live and dead bacteria.

A short description of data set [3]: Absorption and fluorescence spectroscopy. In kind it is physicochemical. The procedure:
as §1

Data set [4] concerns MS2 and T4 bacteriophages. Put plainly: Antiviral activity, general statement. The class given is cell-based.
Another data set relates to E.coli. Briefly: Dead/live assay, biocidal activity against E.coli. In kind it is cell-based. Conditions: under 365 nm radiation. The procedure: (§2) Dead/live assays were performed to test the biocidal activity of EO-OPE-1(C3, A), EO-OPE-1 (C2, A), EO-OPE-1 (C3, S) and EO-OPE-1 (Th, C3, A) against E.coli, S.epidermis, and S.aureus. E.coli, S.epidermis, and S.aureus were cultured in 50 mL of Difco™ Nutrient broth (LOT 4057492, Becton, Dickinson and Company, Sparks, Md. 21152 USA), Difco™ Nutrient broth (LOT 4057492, Becton, Dickinson and Company, Sparks, Md. 21152 USA), and BBL™ Brain Heart Infusion (LOT 8263271, Becton, Dickinson and Company, Sparks, Md. 21152 USA), respectively, for 18 h at 37° C. under shaking. The bacteria were collected by centrifuging 50 mL of culture at 4,000 rpm in an Eppendorf centrifuge for 15 min at 4° C. […] Bacterial concentrations were measured and normalized using a disposal hemocytometer (INCYTO Co., Ltd), counts being 2.5˜3.0×10^7/mL. […]
(§3) Dead/live assays were carried out using two sets of stains: SYTO 9/Propidium iodide for E.coli and SYTO 24/Propidium iodide for S.epidermis and S.aureus. SYTO 9 and SYTO 24 are cell membrane permeant nucleic acid stains with green (˜498 nm for SYTO 9 and ˜515 nm for SYTO 24) fluorescence and used to stain both live and dead cells; Propidium iodide is a red-fluorescent nucleic acid stain that is membrane impermeable to viable cells but stains DNA or RNA of dead cells with comprised membranes and emits red (˜617 nm) fluorescence, indicating cell death. […]

For another data set, the system named is MS2 phage. Put plainly: TEM of viral morphology damage, MS2. Set-up: species or system Bacteriophage MS2. Conditions: 50 ug/ml, dark and irradiated (FIGS. 34, 36, 38, 40). The protocol:
(§4) Transmission Electron Microscopy. High concentration of model viruses (˜10^11 PFU/ml for T4 phage, ˜10^12 PFU/ml for MS2 phage) and CPE/OPE (50 ug/ml) was used for TEM imaging (TEM images were generated in the UNM Electron Microscopy Shared Facility using a Hitachi H7500 transmission electron microscope.) Phage samples were prepared by adding 5 uL phage solutions onto carbon-coated copper grids (freshly cleaned by plasma cleaner) and standing for 2 minutes then rinsing with pure water. The negative stain, 2% aqueous solution of uranyl acetate, was adding onto the grids and standing for 2 minutes, the excess stain was removed by filter paper. The grid was dried in air.

A further data set concerns S.epidermis. Briefly: Dead/live assay, biocidal activity against S.epidermis. In kind it is cell-based, Staphylococcus epidermis. Conditions: under 365 nm radiation. The procedure:
as §2, §3

A further data set in a line: Solubility in solvents. In kind it is physicochemical.
The next data set has as its system T4 phage. Briefly: TEM of viral morphology damage, T4. Set-up: species or system Bacteriophage T4. Conditions: 50 ug/ml, dark and irradiated (FIGS. 33, 35, 37, 39). The protocol:
as §4

The values that follow come from patent publication US10092000B2, “Structure, synthesis, and applications for oligo phenylene ethynylenes (OPEs)” (STC.UNM, priority 2010, dated 2018).

“And” between values parts separate entries of the source, which are not always exact repeats. Equal entries are not always repeated.

As for `C[N+](C)(C)CCCOc1ccc(C#Cc2ccc(C#Cc3ccc(OCCC[N+](C)(C)C)cc3)s2)cc1.[I-].[I-]` [EO-OPE-1 (Th, C3, A)], in data set [1], the “transient absorption (TA) intensity, comparison in words” value is “highest TA intensity”. For the same compound, in data set [1] (in H2O), the “τ3/intensity in H2O” value was found to be 0.15, the “τ3/λmax(nm) in H2O” value is listed as 510 nm and the “τ3/μs in H2O (triplet lifetime)” value is 7.2 μs. Besides, the “light-induced biocidal activity” value in data set [2] was “dramatic light-induced biocidal activity”. The “absorbance intensity after 30 min relative to that measured at 1 min” value in data set [3] (10 μM in H2O) was “the same”. In [3] (in water), the “Fluorescence quantum yields(Φf)*” value is 0.50 and 0.46 ± 0.02. The “antiviral activity” value in data set [4] was “significant antiviral activity”. Besides, the “killing of E. coli” value in the data set with E.coli was “kill”. For the same compound, the “morphology of treated MS2 phage by TEM” value in the data set on MS2 phage is “Obvious morphology change”. Moreover, the “killing of S. epidermis” value in the data set on S.epidermis is given as “kill”. In addition, the “solubility in CH3OH” value in “Solubility in solvents” (CH3OH) was “moderately soluble”. Further, the “solubility in DMF and DMSO” value in the data set “Solubility in solvents” (DMF and DMSO) is “quite soluble”. For the same compound, the “solubility in water” value in “Solubility in solvents” (water) is “poorly soluble”. In addition, the “morphology of treated T4 phage by TEM” value in the data set with T4 phage is given as “serious damage”.
